Reference: article PMC3730168, “Thiol Redox Sensitivity of Two Key Enzymes of Heme Biosynthesis and Pentose Phosphate Pathways: Uroporphyrinogen Decarboxylase and Transketolase” (Oxidative Medicine and Cellular Longevity, 2013)

Key:
Hem12p = target: T1, Hem12p (Saccharomyces cerevisiae, UniProt P32347); assay: fluorescent labelling with eosin-GSH, eosin absorbance at […] nm; format: binding; details: covalent; labelled compound; excess DiEGSSG
T1 construct: gene HEM12; recombinant, codon-optimised synthetic DNA, C-terminal poly-His tag, E. coli, Ni-Sepharose (Abyntek Biopharma)
T1 sequence (P32347 1-362): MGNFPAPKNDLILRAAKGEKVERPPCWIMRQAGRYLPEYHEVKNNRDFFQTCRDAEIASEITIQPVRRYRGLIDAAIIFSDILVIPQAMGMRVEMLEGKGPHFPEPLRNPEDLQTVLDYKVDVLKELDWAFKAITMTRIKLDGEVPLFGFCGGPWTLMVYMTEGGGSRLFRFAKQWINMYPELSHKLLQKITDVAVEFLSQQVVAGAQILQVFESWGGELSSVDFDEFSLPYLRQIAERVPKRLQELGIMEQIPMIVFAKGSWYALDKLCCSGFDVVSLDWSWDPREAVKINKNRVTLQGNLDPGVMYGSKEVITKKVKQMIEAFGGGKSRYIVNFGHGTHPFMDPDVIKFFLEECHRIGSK

Tkl1p = target: T2, Tkl1p (Saccharomyces cerevisiae, UniProt P23254); assay: as above; format: binding; details: covalent; labelled compound; excess DiEGSSG
T2 construct: gene TKL1; recombinant, codon-optimised synthetic DNA, C-terminal poly-His tag, E. coli, Ni-Sepharose (Abyntek Biopharma); homodimer
T2 sequence (P23254 1-680): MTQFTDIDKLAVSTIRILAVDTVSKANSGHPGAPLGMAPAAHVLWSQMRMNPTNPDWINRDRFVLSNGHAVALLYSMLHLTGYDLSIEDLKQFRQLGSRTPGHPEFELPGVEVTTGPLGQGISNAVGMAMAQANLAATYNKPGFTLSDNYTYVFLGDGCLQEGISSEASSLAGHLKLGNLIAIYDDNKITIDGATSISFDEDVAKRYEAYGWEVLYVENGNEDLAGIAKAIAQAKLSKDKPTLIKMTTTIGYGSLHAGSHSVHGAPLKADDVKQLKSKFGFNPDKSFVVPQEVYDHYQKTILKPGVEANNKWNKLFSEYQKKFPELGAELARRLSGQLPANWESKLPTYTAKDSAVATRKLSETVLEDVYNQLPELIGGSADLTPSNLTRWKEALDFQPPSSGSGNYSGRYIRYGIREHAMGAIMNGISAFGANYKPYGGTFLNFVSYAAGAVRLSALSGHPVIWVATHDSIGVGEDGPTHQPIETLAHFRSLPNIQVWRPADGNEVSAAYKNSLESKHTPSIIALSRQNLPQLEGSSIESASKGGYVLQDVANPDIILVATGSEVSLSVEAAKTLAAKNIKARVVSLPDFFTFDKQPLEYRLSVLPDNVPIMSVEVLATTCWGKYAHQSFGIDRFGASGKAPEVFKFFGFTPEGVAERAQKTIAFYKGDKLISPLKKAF

- moles of fluorescent glutathione per mole protein (Hem12p): ~ 1.5 mol/mol
- moles of fluorescent moiety per mole protein (Tkl1p): ~ 0.35 mol/mol
SMILES: O=C(O)CNC(=O)[C@H](CSSC[C@H](NC(=O)CC[C@H](NC(=S)Nc1ccc(-c2c3cc(Br)c(=O)c(Br)c-3oc3c(Br)c(O)c(Br)cc23)c(C(=O)O)c1)C(=O)O)C(=O)NCC(=O)O)NC(=O)CC[C@H](NC(=S)Nc1ccc(-c2c3cc(Br)c(=O)c(Br)c-3oc3c(Br)c(O)c(Br)cc23)c(C(=O)O)c1)C(=O)O [DiEGSSG, dieosinediglutathione]
